Here are results for one molecule from patent publication US20090325978A1, “STABLE LYOPHILIZED PREPARATION” (priority 2006, published 2009).

Series [1] has as its system solid tumor cell. As to conditions: in vivo; cited from earlier work.
The nature of series [2]: formulation study of the compound represented by formula (1): stability and crystal dissolution. It counts as physicochemical.
The nature of series [3]: pKa of the compound represented by formula (1). The series is classed as physicochemical.
Series [4] in a line: solubility of the compound represented by formula (1) in pH regulating solution, HPLC. The series is classed as physicochemical. The note with it: thermodynamic from solid, 50 mM citric acid pH regulator with sucrose and polyethylene glycol 600, 1 hour at 5° C. How it is done: 0.525 g of citric acid monohydrate was dissolved in injection-use distilled water, and a sodium hydroxide solution was used to adjust the pH while 5 g of sucrose and 1 g of polyethylene glycol 600 (stabilizer) were dissolved, thereby preparing 50 mL of various 50 mM pH regulators (with a pH of 5.6, 5.8, 6.0, 6.2, 6.4, or 6.6) containing sucrose and the stabilizer. 3 mL of the pH regulating solution thus prepared was put into a 5 mL vial containing approximately 9 mg of the compound represented by formula (1), and this was stored for 1 hour at 5° C. while being stirred. Thereafter, the solution (including a suspension) was filtered (0.22 μm filter), the first 1 mL of the filtrate was discarded, and the solution thus obtained was subjected to high-performance liquid chromatography (HPLC) to measure the concentration of the compound represented by formula (1), which was termed the solubility of the compound represented by formula (1). The pH of the solution was also measured at the same time.

In series [5] the test system is VEGF (vascular endothelial growth factor) production. The note with it: low-oxygen state in vitro; cited from earlier work.

The pKa is the negative logarithm of the acid dissociation constant. Higher therefore signals a weaker acid or stronger base. Broadly, the solubility is the dissolved amount per volume that the medium holds. On to `CCC(O)C(C)C1OC1CC(C)(O)/C=C/C=C(\C)C1OC(=O)CC(O)CCC(C)(O)C(OC(=O)N2CCN(C3CCCCCC3)CC2)/C=C/C1C` (stereo not drawn) [compound represented by formula (1), (8E,12E,14E)-7-((4-cycloheptylpiperazin-1-yl)carbonyl)oxy-3,6,16,21-tetrahydroxy-6, 10,12,16,20-pentamethyl-18,19-epoxytricosa-8,12,14-trien-11-olide], for which the “action on solid tumor cell proliferation” value in series [1] is reported as “suppressing solid tumor cell proliferation”. Besides, the “stability in the form of a crystalline powder” value in series [2] is given as “good stability”. Also, the stability in solution result in series [2] (formulation of an injection) is “not sufficiently stable”. In addition, in series [2] (packed powder), the crystal dissolution entry is “slow”. Further, in series [3], the pKa is ~7.9. In addition, the solubility at 1 h in series [4] (aqueous with cosolvent or surfactant or cyclodextrin, pH 5.79) was > 2440 µg/mL; in series [4] (aqueous with cosolvent or surfactant or cyclodextrin, pH 5.99), > 2310 µg/mL; in series [4] (aqueous with cosolvent or surfactant or cyclodextrin, pH 6.51), > 2720 µg/mL; in series [4] (aqueous with cosolvent or surfactant or cyclodextrin, pH 6.81), 2570 µg/mL; in series [4] (aqueous with cosolvent or surfactant or cyclodextrin, pH 7.04) it was 1800 µg/mL; in series [4] (pH 6.2, aqueous with cosolvent or surfactant or cyclodextrin, pH 6.20), > 2260 µg/mL. Besides, the “action on VEGF production” value in series [5] is listed as “suppressing VEGF (vascular endothelial growth factor) production”.
